Counter-ions that a name gives are not always drawn. Like-named read-outs stand apart in the source and are kept apart here.
Experiments:
presynaptic Ca channels = test: Inhibition of 45Ca uptake through presynaptic Ca channels in brain synaptosomes; assay type: biochemical, mammalian; conditions: high K+ depolarization-induced 45Ca uptake, read-out: IC50, block of ^45Ca uptake
Method: Compounds of the invention were tested to determine their ability to inhibit voltage-activated calcium channels in nerve terminals of mammalian brain. Said voltage-activated calcium channels directly control neurotransmitter release (see Nachsen, D. A. et al., J. Gen Physiol., 79:1065-1087 (1982)). The uptake of ^45Ca into brain synaptosomes was performed by an adaptation of the method of Nachsen and Blaustein (J. Physiol., 361:251-258 (1985)), as previously described [Goldin et al., PCT/US92/01050]. The principle of the method involves opening ion permeation through synaptosomal calcium channels by high K^+-induced depolarization of the synaptosomal preparation. The rapid component of ^45Ca uptake measured by this procedure is mediated by presynaptic calcium channels.
Briefly, synaptosomes are prepared by the method of Hajos (Brain Res., 93:485-489 (1975)). Freshly prepared synaptosomes (8 μl) were suspended In low potassium “LK” buffer (containing 3 mM KCl). Test compounds in 8 μl LK were added to synaptosomes to final concentrations ranging from 0.3 μM to 100 μM, and the mixture was preincubated for 5 minutes at room temperature. ^45Ca uptake was then initiated by adding isotope in either LK or in buffer (“HK”) containing high [potassium] (150 mM KCl). After 5 seconds, the ^45Ca uptake was stopped by adding 0.9 ml quench buffer (LK+10 mM EGTA). This solution was then filtered under vacuum and the filters washed with 15 ml of quench buffer.
Washed filters were subjected to scintillation spectrophotometry to determine the extent of ^45Ca uptake. Net depolarization-induced ^45Ca uptake was determined for each concentration of each compound tested, as the difference between ^45Ca uptake in HK and LK buffers. Results were plotted as % inhibition of depolarization-induced ^45Ca uptake vs. [compound] for each compound tested. Representative IC50 for inhibition of depolarization-induced ^45Ca uptake are presented below in the tables (2a-2d) below which together are identified as Table 2.

[1] = system: veratridine-induced 3H-glutamate release from brain nerve terminals (voltage-activated presynaptic Na channels); test: Inhibition of veratridine-induced 3H-glutamate release, rapid superfusion of synaptosomes; assay type: biochemical, rat
[2] = target: Type II neuronal voltage-activated sodium channels (Rattus norvegicus, UniProt P04775); test: cell-based
L-type Ca channels = test: Inhibition of 45Ca uptake through L-type (dihydropyridine-sensitive) calcium channels in GH4C1 pituitary cells; assay type: cell-based
Method: Compounds of the invention representative of each of the major classes of agents claimed herein were tested to determine their ability to inhibit voltage-activated, dihydropyridine-sensitive L-type calcium channels in clonal GH4C1 pituitary cells. Said voltage-activated L-type calcium channels are found in cardiac muscle, vascular smooth muscle, and the cardiac Purkije cell conduction system. They are the sites of action of the major classes of Ca antagonists employed to treat hypertension, angina, cardiac arrhythmias, and related disorders. L-type Ca channels are also the sites of action of certain neuroprotective dihydropyridine Ca antagonists such as nimodipine.
The uptake of ^45Ca into GH4C1 cells was performed by an adaptation of the method of Tan, K. et al. (J. Biol. Chem., 259:418-426 (1984)). The principle of the method involves activating ion permeation through synaptosomal calcium channels by high K^+-induced depolarization of the synaptosomal preparation. The uptake of ^45Ca measured by this procedure is mediated by presynaptic L-type calcium channels, and is sensitive to dihydropyridine, phenylalkylamine, and benzothiazipine Ca antagonists at therapeutically relevant concentrations [Tashjian et al., ibid.]. The adaptation of the aforementioned method involves growing GH4C1 cells in 96-well culture plates, and is designed to provide a rapid and quantitative determination of the potency of various compounds in inhibiting ^45Ca uptake through L-type Ca channels.
GH4 cells, stored in liquid nitrogen, are suspended in 15 ml growth medium (Ham's F-10 medium plus 15% heat-inactivated horse serum and 2.5% heat-inactivated fetal bovine serum). The cells are centrifuged, resuspended, and then added to T-75 flasks containing 12-15 mls Growth Medium, and incubated at 37° C. for approximately 1 week. The cells are them removed from the T75 flask after dissociation from the walls of the flask by treatment for 5 minutes at 37° C. with 1 mg/ml Viocase. The Viocase is decanted, and the cells are resuspended in ˜200 ml of Growth Medium. The cells are then aliquoted (200 μl/well) into each well of several 96 well plates. The cells are then grown under the aforementioned conditions for 3-4 weeks, with replacement of Growth Medium occurring twice per week. Cells are fed growth medium 24 hours before they are employed for ^45Ca uptake determinations.
At the time of the assay, media Is aspirated from each 96-well plate using a manifold designed to allow 50 μL of liquid to remain in each well. Each plate is washed and aspirated twice with a low K^+ buffer solution “LKHBBS” (in mM 5 KCl, 145 NaCl, 10 Hepes, 1 MgCl2, […], 10 glucose, pH 7.4), 200 μl/well. Each plate is incubated for 10 minutes at 37° C., and aspirated as above. To each well of each plate, 50 μl of HBBS containing the drug to be tested in twice the final concentration is added. The plates are incubated for 10 minutes at room temperature. To each well of each plate, 50 μl of either of two solutions are added:
(a) LKHBBS containing 1 μCi of carrier-free ^45Ca, or
(b) HKHBBS (a high K^+ buffer containing 150 mM KCl and no NaCl, but otherwise identical to LKHBBS).
Each plate is then incubated for 5 minutes at room temperature, aspirated as above, and quenched with 200 μl/well of Quench Buffer (Ca-free LKHBBS containing 10 mM Tris-EGTA). Each plate is aspirated and rinsed with Quench Buffer a second time, then carefully aspirated to dryness. To each well of each plate 100 μl of High Safe II scintillation fluid is added. The plates are sealed, shaken, and subjected to scintillation spectrophotometry on a Microbeta 96-well Scintillation Counter (Wallac, Gaithersburg, Md., USA).
Net depolarization-induced ^45Ca uptake was determined for each concentration of each compound tested, as the difference between ^45Ca uptake in HKBBS and LK buffers. Results were plotted as % inhibition of depolarization-induced ^45Ca uptake vs. [compound] for each compound tested.

[3] = system: depolarization-induced 3H-glutamate release from brain nerve terminals; test: Inhibition of 3H-glutamate release, high [K+] depolarization, rapid superfusion of synaptosomes; assay type: biochemical; conditions: rat brain synaptosomes; for % Inhibition of ^3H-Glu Rel @ 3 μM: 3 μM compound; for % Inhibition of ^3H-Glu Rel @ 1 μM: 1 μM compound
[4] = system: audiogenic seizures in DBA/2 mice; test: In vivo anticonvulsant activity in the DBA/2 mouse model (audiogenic seizures); conditions: 30 minutes prior to auditory stimulus
Method: Compounds were tested for their effectiveness in preventing seizures in DBA/2 mice which have a unique sensitivity to auditory stimulation. Exposure to loud high-frequency sounds can trigger seizure activity in these animals. This sensitivity develops from postnatal day 12 and peaks around day 21 and slowly diminishes as the animals mature. The unusual response to auditory stimulation in this strain of mouse is believed to be due to a combination of early myelination (causing an unusually low excitatory threshold) and delayed development of inhibitory mechanisms. Glutamate, the predominant excitatory neurotransmitter, has been implicated in this response. Blockade of glutamate receptors of the NMDA and AMPA subtypes, prevents audiogenic seizures in these mice. Compounds that block the release of glutamate should similarly act to prevent seizure activity, and may be therapeutic in other neurologic disorders such as stroke, which also involves glutamate-mediated damage.
Mice were injected intraperitoneally with the compound specified in Table V below or with vehicle control, 30 minutes prior to being placed in a bell jar and turning on the auditory stimulus (12 KHz sine wave at 110-120 db). Administered doses are specified in Table V as milligram of compound per kilogram bodyweight of mouse. The auditory stimulus was left on for 60 seconds and mice reactions were timed and recorded.
Percentage inhibition was determined with reference to vehicle controls.

[5] = veratridine (100 μM)-induced, tetrodotoxin-sensitive uptake, CHO cells expressing rat brain Type II Na channels, read-out: IC50, block of ^14C guanidinium uptake
[6] = high K+ depolarization-induced 45Ca uptake, read-out: IC50, block of ^45Ca uptake

Sequence of Type II neuronal voltage-activated sodium channels (P04775 whole entry): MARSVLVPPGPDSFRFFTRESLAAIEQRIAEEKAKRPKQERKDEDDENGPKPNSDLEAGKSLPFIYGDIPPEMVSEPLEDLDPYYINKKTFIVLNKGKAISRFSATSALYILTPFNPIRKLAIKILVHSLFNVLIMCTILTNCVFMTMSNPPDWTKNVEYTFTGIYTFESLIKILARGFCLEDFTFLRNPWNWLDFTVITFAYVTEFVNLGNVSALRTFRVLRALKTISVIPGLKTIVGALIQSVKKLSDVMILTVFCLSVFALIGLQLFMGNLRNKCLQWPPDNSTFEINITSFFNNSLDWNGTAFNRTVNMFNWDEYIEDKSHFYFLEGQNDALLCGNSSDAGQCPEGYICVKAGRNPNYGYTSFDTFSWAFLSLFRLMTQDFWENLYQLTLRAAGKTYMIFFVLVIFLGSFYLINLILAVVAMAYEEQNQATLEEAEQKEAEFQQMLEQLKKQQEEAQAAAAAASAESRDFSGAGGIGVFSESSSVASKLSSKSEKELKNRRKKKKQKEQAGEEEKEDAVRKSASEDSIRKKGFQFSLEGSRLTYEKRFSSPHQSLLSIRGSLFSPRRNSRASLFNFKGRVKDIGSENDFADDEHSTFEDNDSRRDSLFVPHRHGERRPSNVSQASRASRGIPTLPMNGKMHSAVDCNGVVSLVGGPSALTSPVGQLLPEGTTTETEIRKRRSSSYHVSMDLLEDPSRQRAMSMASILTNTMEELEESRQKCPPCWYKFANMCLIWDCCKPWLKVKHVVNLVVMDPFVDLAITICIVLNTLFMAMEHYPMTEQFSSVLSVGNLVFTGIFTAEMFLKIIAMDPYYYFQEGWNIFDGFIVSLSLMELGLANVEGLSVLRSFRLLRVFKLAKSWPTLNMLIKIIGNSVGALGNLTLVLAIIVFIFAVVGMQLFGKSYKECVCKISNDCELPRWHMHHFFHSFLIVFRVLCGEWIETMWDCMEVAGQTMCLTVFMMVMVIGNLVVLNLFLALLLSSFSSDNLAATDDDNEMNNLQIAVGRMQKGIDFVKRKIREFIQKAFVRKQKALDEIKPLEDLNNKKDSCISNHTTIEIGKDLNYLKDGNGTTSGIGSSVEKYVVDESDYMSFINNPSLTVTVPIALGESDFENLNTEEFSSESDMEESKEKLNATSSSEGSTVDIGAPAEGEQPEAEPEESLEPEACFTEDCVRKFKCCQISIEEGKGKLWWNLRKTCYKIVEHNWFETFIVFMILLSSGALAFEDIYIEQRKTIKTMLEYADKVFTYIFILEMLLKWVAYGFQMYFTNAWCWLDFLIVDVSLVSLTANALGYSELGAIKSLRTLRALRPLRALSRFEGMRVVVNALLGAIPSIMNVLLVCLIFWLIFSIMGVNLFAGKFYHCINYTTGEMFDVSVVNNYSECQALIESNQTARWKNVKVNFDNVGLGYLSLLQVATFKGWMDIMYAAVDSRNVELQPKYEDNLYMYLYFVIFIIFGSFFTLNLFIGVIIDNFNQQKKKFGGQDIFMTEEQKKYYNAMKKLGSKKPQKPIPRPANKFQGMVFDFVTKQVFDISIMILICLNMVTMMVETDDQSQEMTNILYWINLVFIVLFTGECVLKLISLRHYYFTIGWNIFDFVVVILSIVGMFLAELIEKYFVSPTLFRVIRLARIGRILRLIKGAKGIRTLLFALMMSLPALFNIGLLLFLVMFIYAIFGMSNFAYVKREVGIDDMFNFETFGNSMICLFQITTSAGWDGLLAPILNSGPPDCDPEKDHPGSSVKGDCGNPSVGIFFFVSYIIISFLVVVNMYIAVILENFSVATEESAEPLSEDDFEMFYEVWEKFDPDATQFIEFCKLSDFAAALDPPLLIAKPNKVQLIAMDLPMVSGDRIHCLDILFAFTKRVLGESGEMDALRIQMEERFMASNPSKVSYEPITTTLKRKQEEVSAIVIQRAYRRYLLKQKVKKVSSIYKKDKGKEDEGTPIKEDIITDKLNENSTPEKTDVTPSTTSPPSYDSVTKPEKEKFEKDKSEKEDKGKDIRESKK

Compound	IC50 (presynaptic Ca channels) [nM]	IC50 [2, 5] [nM]	IC50 (L-type Ca channels; [6]) [nM]	% Inhibition of ^3H-Glu Rel @ 3 μM [3] [%]	melting point [°C]	also measured
Br.N=C(Nc1ccc2c3c(cccc13)-c1ccccc1-2)Nc1ccc2c3c(cccc13)-c1ccccc1-2 [Example 9, N-N′-Bis(3-fluoroanthenyl)guanidine hydrobromide]	7800	700				% Inhibition of ^3H-Glu Rel @ 3 μM (*veratridine-induced glutamate release assay) [1]: 17* %
COc1ccc([C@@H]2Sc3ccccc3N(CCN(C)C)C(=O)[C@@H]2OC(C)=O)cc1 [diltiazem, reference compound]						IC50 (L-type Ca channels; read-out: IC50, block of ^45Ca uptake, high K+ depolarization-induced 45Ca uptake): 19700 nM
COc1ccc(NC(=N)Nc2ccc(Cl)c(Cl)c2Cl)c2ccccc12.Cl [Example 15, N-(4-Methoxy-1-naphthyl)-N′-(2,3,4-trichlorophenyl)guanidine.HCl]	1700		1700	88		
CC(C)(C)c1ccc(CN(C(=N)N)c2ccc3c4c(cccc24)CC3)cc1 [Example 2]	8100	1000	2100	61		% Inhibition of ^3H-Glu Rel @ 1 μM [3]: 52%
CCC(C)c1ccc(N(C)C(=N)N(C)c2ccc(C(C)CC)cc2)cc1 (stereo not shown) (as salt: HCl) [Example 6]					65 to 66	
CCC(C)c1ccc(N(C)C(=N)N(C)c2ccc(C(C)CC)cc2)cc1 (stereo not shown) [Example 6]	5900		4300	92		IC50 [2]: 600 nM; % Inhibition of ^3H-Glu Rel @ 1 μM [3]: 71%
CC(C)(C)c1ccc(NC(=N)Nc2ccc(C(C)(C)C)cc2)cc1 [Example 13, N,N′-Bis(4-tort-butylphenyl)guanidine]	1500	900	4100	70		% Inhibition of ^3H-Glu Rel @ 1 μM (*veratridine-induced glutamate release assay) [1]: 62* %
CC(C)c1ccc(CN(C(=N)N)c2ccc3c4c(cccc24)CC3)cc1 [Example 19, N-(5-Acenaphthyl)-N-(4-isopropylbenzyl)guanidine]			2100		153 to 155	% Inhibition of ^3H-Glu Rel @ 3 μM (*veratridine-induced glutamate release assay) ([1]; 3 μM compound, 50 μM veratridine-induced release, rat brain synaptosomes): 81* %
N=C(Nc1ccc2c3c(cccc13)CC2)NC(c1ccccc1)c1ccccc1 (as salt: HCl) [Example 3, N-(5-Acenaphthyl)-N′-benzhydrylguanidine.HCl]					225 to 227	
N=C(Nc1ccc2c3c(cccc13)CC2)NC(c1ccccc1)c1ccccc1 [Example 3, N-(5-Acenaphthyl)-N′-benzhydrylguanidine.HCl]			2700	53		
CCC(C)c1ccc(N(Cc2ccc(C(C)(C)C)cc2)C(=N)N)cc1 (stereo not shown) [Example 1, N-(4-sec-Butylphenyl)-N-(4-tert-butylbenzyl)guanidine.HCl]	6100		1700	61		Audiogenic Response % Inhib. ([4]; 10 mg/kg intraperitoneally): 54%; Audiogenic Response % Inhib. ([4]; 20 mg/kg intraperitoneally): 80.5%; Audiogenic Response % Inhib. ([4]; 40 mg/kg intraperitoneally): 91%; % Inhibition of ^3H-Glu Rel @ 1 μM (*veratridine-induced glutamate release assay) ([1]; 1 μM compound, 50 μM veratridine-induced release, rat brain synaptosomes): 67* %; IC50 [2]: 800 nM
CC(C)(C)c1ccc(CN(C(=N)N)c2ccc(Cl)c3ccccc23)cc1 (as salt: HCl) [Example 49, N-(4-Chloro-1-naphthyl)-N-(4-tert-benzyl)guanidine.HCl]					115 to 117	
CCC(C)c1ccc(NC(=N)Nc2ccc(C(C)CC)cc2)cc1 (stereo not shown) [Example 4, N,N′-bis(4-sec-Butylphenyl)guanidine.HCl]	11200	800	2100	85		% Inhibition of ^3H-Glu Rel @ 1 μM [3]: 52%
